Two compounds from patent US6511939B1, “Coronatine as an abscission agent” (priority 2001, dated 2003) can be followed below.

The structures appear in SMILES notation.

Common to all, as to assay type: in vivo
In one test the test system is Hamlin orange. Briefly: Fruit pull-force reduction after spraying trees, Hamlin orange. The following applies: for % reduction in fruit pull force, day 5: day 5, mean. The procedure:
Data are the means of 6 replicate branches, with 10 fruit/branch. Bars above and below the means indicate standard error of the mean.
(§1) Solutions of COR were prepared that contained 200 mg/L or 300 mg/L of COR dissolved in water and 0.125% Kinetic®. The solution was sprayed until “run-off,” typically about 5 L/tree. […] Under field conditions, canopies should not be sprayed if rainfall is anticipated within 24 hours. For comparison purposes, 200 mg/L to 400 mg/L Ethrel® solutions and a 0.125% Kinetic® solution were applied to trees. After several days, usually 3 to 10, differences in fruit pull-force were measured between COR and other treatments and is an indication of fruit loosening ability. […] Differences in fruit drop were also measured by counting or weighing dropped fruit.

Test [1] concerns Valencia orange. Briefly: Fruit pull-force reduction after spraying trees, Valencia orange. To be noted: for % reduction in fruit pull force, day 5: 0.125% Kinetic, day 5, mean. The method, then:
(§2) Data are the means of 10 replicate branches, with 10 fruit/branch. Bars above and below the means indicate standard error of the mean.
as §1

Test [2] concerns Valencia orange. Briefly: Fruit drop after spraying trees, Valencia orange. The following applies: for % fruit drop, day 5: day 5, mean. The method, then: as §2, §1
[3] abbreviates: COR compositions 200 or 300 mg/L.

Regarding `CC[C@H]1C=C(C(=O)N[C@@]2(C(=O)O)C[C@@H]2CC)[C@H]2CCC(=O)[C@H]2C1` [COR, Coronatine], the “% reduction in fruit pull force, day 5” value with Hamlin orange (200 mg/L spray to run-off) is 55%; in the test with Hamlin orange (300 mg/L spray to run-off), 55.5%; with Valencia orange [1] (200 mg/L spray to run-off), 96.1%; with Valencia orange [1] (300 mg/L spray to run-off) it was 96.3%. Besides, the “reduction of fruit pull-force” value in the test on Hamlin orange (setting [3]) and in the test on Valencia orange [1] (setting [3]) was “approximately 95%” in each case. For the same compound, the “% fruit drop, day 5” value is recorded as 50% in the test with Valencia orange [2] (200 mg/L spray to run-off) and 63.3% in the test on Valencia orange [2] (300 mg/L spray to run-off). For the same compound, the “percentage of fruit drop as compared to Ethrel and the control” value with Valencia orange [2] (setting [3]) is given as “substantially increased”.

For the compound `O=P(O)(O)CCCl` [Ethrel ®, 2-chloroethyl phosphonic acid], the “% reduction in fruit pull force, day 5” value in the test with Hamlin orange (200 mg/L spray to run-off) was found to be 64%; with Valencia orange [1] (200 mg/L spray to run-off), 71.7%. Also, the “% fruit drop, day 5” value in the test on Valencia orange [2] (200 mg/L spray to run-off) was determined as 13.3%.
